{"source": "patent US12098352B2", "about": "“Stem cell-based lung-on-chip models” (EMULATE, INC., priority 2018, dated 2024)", "key": {"[1]": {"tested_on": "Alveolus-Chip epithelium/endothelium barrier", "test": "Barrier function assay (fluorescent dextran / Lucifer Yellow leakage) in Open-Top Alveolus-Chip", "assay_type": "cell-based, human", "conditions": "for preventive effect on barrier leakage: co-administered with H2O2 (10 mM), 50 nM Bardoxolone, 0.01-1.0 μM GSK, 2 μM JQ1; for reversibility of barrier breakdown after removal of stressor: additional 2 days in fresh medium", "description": "We studied interaction between different chip compartments by perturbating the system with biological and chemical stressors such as LPS, and H2O2 which are known to induce a reversible disruption of the cellular monolayer after acute administration both in vivo and in vitro. […] The presence of a strong barrier is indirectly confirmed by the presence of continuous pattern of E-cad and VE-cad in the monolayer of Alveolar epithelial and endothelial cell, respectively.\n(§1) Given the limited availability of in vitro models that can closely mimic human alveolar epithelium function and/or its disease states, we explored whether a microfluidic Alveolus-Chip lined with the primary alveolar epithelial cells on an artificial lung stroma with embedded primary lung fibroblasts and pulmonary microvascular endothelial cells would model a lung injury state. To test this, we exposed the Alveolus-Chips to an acute damage generated by exposure to H2O2 under continuous infusion through the epithelium top channel, similarly to as it is […] administered in mice.\nAir-Liquid interface was replaced by phenol red free MEM (GIBCO: 51200-038) and medium in the bottom fluidical spiraled channel substituted by one containing 1 mg/ml Lucifer Yellow CH, Lithium Salt (ThermoFisher: L453) or 0.1 mg/ml Dextran, Fluorescein, 3000 MW, Anionic, Lysine Fixable (ThermoFisher: D3306). Leakage of the fluorescent probe from the lumen of the spiraled channel to the epithelial compartment was collected from the outlet reservoirs after indicated hours of perfusion. The fluorescence intensity was measured with a 96-well fluorimeter at excitation/emission indicated by the manufacturer."}, "IL-6, IL-8 and MCP-1": {"tested_on": "IL-6, IL-8 and MCP-1", "test": "Cytokine secretion in chip medium effluent (ELISA)", "assay_type": "cell-based, human", "conditions": "24 hours of exposure", "description": "We studied interaction between different chip compartments by perturbating the system with biological and chemical stressors such as LPS, and H2O2 which are known to induce a reversible disruption of the cellular monolayer after acute administration both in vivo and in vitro. […] To assess changes in the barrier function following the exposure to these insults, we added a fluorescent dye (e.g. […]—Dextran-FITC) to the endothelial compartment, which is under control condition confirmed that the endothelium and epithelium form a barrier to the dies. The presence of a strong barrier is also indirectly confirmed by the presence of continuous pattern of E-cad and VE-cad in the monolayer of Alveolar epithelial and endothelial cell, respectively. […] We also decoupled the effect of single biological component to the inflammatory response by selectively removing them from the system in an integrated matrix. […] In fact, the recorded value of IL-6 and IL-8 is not the algebraic sum of the concentration of the factors released by the single cellular components. […]\nThe amount of Surfactant B and C was collected from chip epithelial cell surface by PBS washing and measured by Human SFTPB/Surfactant Protein B ELISA Kit (Sandwich ELISA)—LS-F4439 and Human SFTPC/Surfactant Protein C ELISA Kit (Sandwich ELISA)—LS-F12438 (LifeSpanBioScience) following the manufacturer's protocol. The color reaction was measured at 450 nm with a photometer (specification). […] Similarly, the presence of IL-6, IL-8 and MPC in medium samples was detected by Human TLR-induced Cytokines II: Microbial-induced Multi-Analyte ELISArray Kit (MEH-008A) (Qiogen) following the manufacturer's protocol. The color reaction was measured at 450 nm with a photometer (specification). […]"}, "[2]": {"tested_on": "cellular monolayer barrier", "test": "Barrier function in static transwell", "assay_type": "cell-based", "conditions": "doses up to 100 ng/ml LPS, 10 mM H2O2"}, "E-Cadherin": {"tested_on": "E-Cadherin", "test": "E-Cadherin / phalloidin imaging of Alveolus-Chip epithelium after H2O2", "assay_type": "cell-based, human", "description": "In one embodiment, a method is used for testing the effects of activating the Nrf2 system on pathological cell responses using an activating treatment, such as H2O2; LPS, etc. […] Control left panel, H2O2 (10 mM) (48 h) treatment, right panel. E-cadherin (green) actin (pink) and nuclei blue.\nas §1\nOpen-Top Organ-Chips were fixed in 10% neutral buffered formalin. Endothelial cells were stained inside the chip by performinutesg the immunofluorescence steps described below directly inside the microfluidic channel. Stroma equivalents were stained as described by the step below inside the chip or alternatively extracted from the chip and processed for immunohistochemistry analysis. […]"}, "[3]": {"tested_on": "human airway epithelium on-chip", "conditions": "cited from earlier work"}, "[4]": {"tested_on": "alpha smooth muscle Actin (alpha-SMA)", "test": "TGF-β treatment of open top Alveolar-Chip (EMT markers, immunostaining / qRT-PCR)", "assay_type": "cell-based, human", "conditions": "TGF-β up to 72 hours, versus vehicle", "description": "E-cadherin is shown in pink."}}, "note": "“Also recorded” adds a separate entry of the source."}
{"compound": "CC1(C)CC[C@]2(C(=O)O)CC[C@]3(C)[C@H](C(=O)C=C4[C@@]5(C)C=C(C#N)C(=O)C(C)(C)[C@@H]5CC[C@]43C)[C@@H]2C1", "note": "[Bardoxolone, Bardoxolone (methyl)]", "values": [{"measurement": "preventive effect on barrier leakage", "setting": "[1]", "result": "significant preventive effect on the barrier leakage"}]}
{"compound": "OO", "note": "[H2O2]", "values": [{"measurement": "release of IL-6, IL-8 and MCP-1 in medium effluent", "setting": "IL-6, IL-8 and MCP-1", "result": "no apparent correlation"}, {"measurement": "loss of barrier function", "setting": "[2]", "result": "dose dependent loss of barrier function"}, {"measurement": "effect of stressor on barrier function", "setting": "[1]; LPS 10 ng/ml and/or H2O2 10 mM", "result": "causes barrier breakdown and disruption of intracellular junction; also recorded: significant loss of barrier function"}, {"measurement": "reversibility of barrier breakdown after removal of stressor", "setting": "[1]", "result": "barrier breakdown in our chip was reversable"}, {"measurement": "E-Cadherin distribution", "setting": "E-Cadherin; H2O2 10 mM, 48 h", "result": "induces redistribution of E-Cadherin; also recorded: pronounced loss and re-distribution of E-Cadherin"}, {"measurement": "pneumocyte monolayer integrity (microscopy)", "setting": "E-Cadherin; H2O2 continuous infusion through epithelium top channel", "result": "disruption of the pneumocyte monolayer with partial cell detachment"}]}
{"compound": "Cc1sc2c(c1C)C(c1ccc(Cl)cc1)=N[C@@H](CC(=O)OC(C)(C)C)c1nnc(C)n1-2", "note": "[JQ1, thienotriazolodiazepine]", "values": [{"measurement": "preventive effect on barrier leakage", "setting": "[1]", "result": "significant preventive effect on the barrier leakage"}]}
{"compound": "C[C@@H]1CCN(C(=O)CC#N)C[C@@H]1N(C)c1ncnc2[nH]ccc12", "note": "[Tofacitinib]", "values": [{"measurement": "effect on IL-13 induced phenotype", "setting": "[3]", "result": "suppressed"}]}
{"compound": "IL-13: cytokine perfused to mimic a Th2 enriched microenvironment", "values": [{"measurement": "airway phenotype on IL-13 perfusion through the vascular channel", "setting": "[3]", "result": "significant airway remodeling with goblet cells hyperplasia"}]}
{"compound": "TGF-β: transforming growth factor beta1, cytokine inducing epithelial to mesenchymal transition", "values": [{"measurement": "ICAM-1 staining", "setting": "[4]", "result": "lack of ICAM-1"}, {"measurement": "alpha-SMA induction", "setting": "[4]", "result": "induction of alpha smooth muscle Actin (alpha-SMA)"}, {"measurement": "reversibility of barrier breakdown after removal of stressor", "setting": "[1]", "result": "barrier breakdown in our chip was reversable"}]}
